This note sets out measurements from patent US10766890B2, “Hepatitis B core protein modulators” (Assembly Biosciences, Inc., priority 2015, dated 2020).

One data set has as its system HBV. Description: Viral load production in AD38 cells, quantitative PCR of the core sequence in supernatant. The class given is cell-based. Particulars: 10 μM compound, 6 days at 37° C., supernatant qPCR vs DMSO control; for activity at 10 µM: Hepatitis B virus, 144 h, read-out: AD38 Viral Load (%) (VL with cmpd/VL in DMSO control) at 10 μM. Here is the method:
(§1) Example 63: Assay Measuring Activity of Compounds on Viral Production in and on Viability of AD38 Cells
(§2) AD38 cells were then re-suspended with 10 mL of Treatment Medium and counted. Wells of a collagen coated 96-well NUNC microtiter plate were seeded at 50,000/well in 180 μL of Treatment Medium, and 20 μL of in treatment media with either 10% DMSO (Control) or a 10× solution of compound in 10% DMSO was added. Plates were incubated for 6 days at 37° C.
Viral load production was assayed by quantitative PCR of the core sequence. […] The PCR mixture was incubated at 45° C. for 5 minutes, then 95° C. for 10 min, followed by 40 cycles of 10 seconds at 95° C. and 20 seconds at 60° C. Viral load was quantitated against known standards by using ViiA™ 7 Software. Viral load in the supernatant from wells with treated cells were compared against viral load in supernatant from DMSO control wells (≥3 per plate).

A further data set concerns AD38 cells. The data set can be described thus: Viability of AD38 cells, Promega CellTiter-Glo. To be noted: 10 μM compound, 6 days, CellTiter-Glo luminescence, controls being 100%. In kind it is cell-based. As to the method:
as §1, §2
At the end of compound treatment period cell viability was assessed using a Promega CellTiter-Glo protocol. All supernatant was removed the previously treated 96-well microtiter plate, and 50 μL Tetracycline-free treatment medium (DMEM/F12 (1:1), 1×Pen/step (cat#: 30-002-CL, Mediatech, Inc), with 2% FBS, Tet-system approved (cat#: 631106, Clontech), and 1% DMSO was added back to each well. Another 50 μL of CellTiter-Glo reagent solution (Promega, G7573) was then added at room temperature and the contents mixed for 2 minutes on an orbital shaker to induce cell lysis. This was followed by incubation at room temperature for 10 minutes to stabilize the luminescent signal. The luminescence was recorded for 0.2 seconds per well on a Tecan multimode platereader (Infinite M1000 pro). The luminescent signal from each well was normalized against that of untreated (DMSO) control wells. All results in Table 3 were reported with percent viability (with controls being 100%).

As for `O=C(NCCCCOc1ccc(CCNC(=O)c2ccc3c(c2)NC(=O)c2ccccc2S3(=O)=O)cc1)OCc1ccccc1` [Compound 481], the activity at 10 µM with HBV was determined as 0.5%. Moreover, the “AD38 Viability Normalized Result (cmpd/DMSO %) at 10 μM” value in the data set on AD38 cells is 91%.
Consider `CCN1c2ccc(C(=O)NCCc3ccc(S(=O)(=O)N(C)C)cc3)cc2NC(=O)c2ccccc21` [Compound 501], for which the activity at 10 µM in the data set with HBV came out at 5.5%. In addition, the “AD38 Viability Normalized Result (cmpd/DMSO %) at 10 μM” value in the data set with AD38 cells was 91%.
For `COc1ccc(Cc2cccc(CNC(=O)c3ccc4c(c3)NC(=O)c3ccccc3S4(=O)=O)c2)cc1` [Compound 809-A, N-(3-(4-methoxybenzyl)benzyl)-11-oxo-10,11-dihydrodibenzo[b,f][1,4]thiazepine-8-carboxamide 5,5-dioxide], in the data set on HBV, the activity at 10 µM came out at 0.6%. Besides, in the data set on AD38 cells, the “AD38 Viability Normalized Result (cmpd/DMSO %) at 10 μM” value is 85%.
In the same order, the values of `O=C(NCCc1ccc(-c2ccc(F)cc2)cc1)c1ccc2c(c1)NC(=O)c1ccccc1S2(=O)=O` [Compound 533] are 0.6% and 3%.
`O=C(NCCOc1ccc(F)cc1)c1ccc2c(c1)NC(=O)c1ccccc1S2(=O)=O` [Compound 469]: in the data set with HBV, the activity at 10 µM came to 4.1%. Further, the “AD38 Viability Normalized Result (cmpd/DMSO %) at 10 μM” value in the data set with AD38 cells is recorded as 100%.
Regarding `O=C(NCc1ccc(-c2cn(Cc3ccccc3)nn2)cc1)c1ccc2c(c1)NC(=O)c1ccccc1S2(=O)=O` [Compound 569-A], the activity at 10 µM in the data set on HBV turned out to be 1.5%. Further, the “AD38 Viability Normalized Result (cmpd/DMSO %) at 10 μM” value with AD38 cells is recorded as 97%.
In the same order, the values of `CN(C)CCOc1cccc(-c2ccc(CNC(=O)c3ccc4c(c3)NC(=O)c3ccccc3O4)cc2)c1` [Compound 717] are 170% and 0%.
The like results for `O=C(NCc1cccc(-c2ccc(F)cc2)c1)c1ccc2c(c1)NC(=O)c1ccccc1S2(=O)=O` [Compound 566] were, in that order, 0.6% and 95%.
In the same order, the values of `O=C(NCc1ccc(-c2c[nH]nn2)cc1)c1ccc2c(c1)NC(=O)c1ccccc1S2(=O)=O` [Compound 569] are 2.8% and 100%.
Consider `CN(C)S(=O)(=O)c1ccc(CCNC(=O)c2ccc3c(c2)NC(=O)c2ccccc2N3)cc1` [Compound 510], for which the activity at 10 µM in the data set on HBV turned out to be 21.4%. The “AD38 Viability Normalized Result (cmpd/DMSO %) at 10 μM” value with AD38 cells amounted to 92%.
The like results for `O=C(NCc1ccc(-c2ccc(O)cc2)cc1)c1ccc2c(c1)NC(=O)c1ccccc1S2(=O)=O` [Compound 638] were, in that order, 8.6% and 7%.
Regarding `COc1ccc(Oc2cccc(CNC(=O)c3ccc4c(c3)NC(=O)c3ccccc3O4)c2)cc1` [Compound 745-A, N-(3-(4-methoxyphenoxy)benzyl)-11-oxo-10,11-dihydrodibenzo[b,f][1,4]oxazepine-8-carboxamide], the activity at 10 µM with HBV was found to be 16.1%. Besides, the “AD38 Viability Normalized Result (cmpd/DMSO %) at 10 μM” value in the data set on AD38 cells is 92%.
Take `O=C(NCc1cccc(Oc2ccc(O)cc2)c1)c1ccc2c(c1)NC(=O)c1ccccc1S2(=O)=O` [Compound 811, N-(3-(4-hydroxyphenoxy)benzyl)-11-oxo-10,11-dihydrodibenzo[b,f][1,4]thiazepine-8-carboxamide 5,5-dioxide]: the activity at 10 µM with HBV came out at 1.2%. The “AD38 Viability Normalized Result (cmpd/DMSO %) at 10 μM” value in the data set with AD38 cells is reported as 95%.
The like results for `COc1cccc(Sc2cccc(CNC(=O)c3ccc4c(c3)NC(=O)c3ccccc3O4)c2)c1` [Compound 742-A, N-(3-((3-methoxyphenyl)thio)benzyl)-11-oxo-10,11-dihydrodibenzo[b,f][1,4]oxazepine-8-carboxamide] were, in that order, 2.6% and 107%.
The like results for `O=C(NCc1cccc(Cc2ccc(O)cc2)c1)c1ccc2c(c1)NC(=O)c1ccccc1O2` [Compound 741, N-(3-(4-hydroxybenzyl)benzyl)-11-oxo-10,11-dihydrodibenzo[b,f][1,4]oxazepine-8-carboxamide] were, in that order, 40.1% and 111%.
`CN(C)CCOc1ccc(-c2ccc(CNC(=O)c3ccc4c(c3)NC(=O)c3ccccc3S4(=O)=O)cc2)cc1` [Compound 657]: in the data set on HBV, the activity at 10 µM turned out to be 19.4%. The “AD38 Viability Normalized Result (cmpd/DMSO %) at 10 μM” value in the data set with AD38 cells amounted to 104%.
The like results for `O=C(NCc1cccc(Cc2ccc(O)cc2)c1)c1ccc2c(c1)NC(=O)c1ccccc1S2(=O)=O` [Compound 809, N-(3-(4-hydroxybenzyl)benzyl)-11-oxo-10,11-dihydrodibenzo[b,f][1,4]thiazepine-8-carboxamide 5,5-dioxide] were, in that order, 1.1% and 77%.
For `NCc1ccc(-c2ccc(CNC(=O)c3ccc4c(c3)NC(=O)c3ccccc3O4)cc2)cc1` [Compound 726], the “AD38 Viral Load (%) (VL with cmpd/VL in DMSO control) at 10 μM” value in the data set with HBV is recorded as 6.1%. Further, the “AD38 Viability Normalized Result (cmpd/DMSO %) at 10 μM” value with AD38 cells is 1%.
Turning to `CN(C)c1ccc(-c2ccc(CNC(=O)c3ccc4c(c3)NC(=O)c3ccccc3S4(=O)=O)cc2)cc1` [Compound 646], the activity at 10 µM with HBV was found to be 6%. The “AD38 Viability Normalized Result (cmpd/DMSO %) at 10 μM” value with AD38 cells is 92%.
As for “11-oxo-N-(4-(4-((2,2,2-trifluoroacetyl)-λ^4-azanyl)butoxy) phenethyl)-10,11-dihydrodibenzo[b, f][1,4]thiazepine-8-carboxamide 5,5-dioxide [Compound 482]”, the “AD38 Viral Load (%) (VL with cmpd/VL in DMSO control) at 10 μM” value in the data set with HBV stood at 16.3%. The “AD38 Viability Normalized Result (cmpd/DMSO %) at 10 μM” value in the data set with AD38 cells turned out to be 101%.
Turning to `O=C(NCc1cccc(Sc2cccc(O)c2)c1)c1ccc2c(c1)NC(=O)c1ccccc1S2(=O)=O` [Compound 812, N-(3-((3-hydroxyphenyl)thio)benzyl)-11-oxo-10,11-dihydrodibenzo[b,f][1,4]thiazepine-8-carboxamide 5,5-dioxide], the activity at 10 µM with HBV is 5.1%. Moreover, the “AD38 Viability Normalized Result (cmpd/DMSO %) at 10 μM” value with AD38 cells was 99%.
In the same order, the values of `COc1ccc(-c2ccc(CNC(=O)c3ccc4c(c3)NC(=O)c3ccccc3S4(=O)=O)cc2)cn1` [Compound 775, N-(4-(6-methoxypyridin-3-yl)benzyl)-11-oxo-10,11-dihydrodibenzo[b,f][1,4]thiazepine-8-carboxamide 5,5-dioxide] are 2.6% and 93%.
In the same order, the values of `O=C(NCCC(c1ccccc1)N1CCCC1)c1ccc2c(c1)NC(=O)c1ccccc1S2(=O)=O` (centres unmarked) [Compound 472] are 32.6% and 105%.
In the same order, the values of `O=C(NCc1cccc(Oc2ccc(O)cc2)c1)c1ccc2c(c1)NC(=O)c1ccccc1O2` [Compound 745, N-(3-(4-hydroxyphenoxy)benzyl)-11-oxo-10,11-dihydrodibenzo[b,f][1,4]oxazepine-8-carboxamide] are 38.7% and 108%.
For the molecule `C[C@H](NC(=O)c1ccc2c(c1)NC(=O)c1ccccc1S2(=O)=O)c1ccc(-c2ccc(O)cc2)cc1` [Compound 640], in the data set on HBV, the activity at 10 µM was determined as 4.4%. In addition, the “AD38 Viability Normalized Result (cmpd/DMSO %) at 10 μM” value with AD38 cells is listed as 1%.
In the same order, the values of `C[C@@H](NC(=O)c1ccc2c(c1)NC(=O)c1ccccc1S2(=O)=O)c1ccc(-c2ccc(O)cc2)cc1` [Compound 643] are 30% and 104%.
The like results for `N#Cc1cccc(-c2ccc(CNC(=O)c3ccc4c(c3)NC(=O)c3ccccc3S4(=O)=O)cc2)c1` [Compound 676-A] were, in that order, 5.9% and 98%.
The like results for `O=C(NCc1cccc(Oc2cccc(O)c2)c1)c1ccc2c(c1)NC(=O)c1ccccc1O2` [Compound 744, N-(3-(3-hydroxyphenoxy)benzyl)-11-oxo-10,11-dihydrodibenzo[b,f][1,4]oxazepine-8-carboxamide] were, in that order, 62.9% and 108%.
Take `O=C(NCc1ccc(-c2ccc3[nH]cnc3c2)cc1)c1ccc2c(c1)NC(=O)c1ccccc1S2(=O)=O` [Compound 644]: the activity at 10 µM in the data set on HBV was determined as 31.2%. The “AD38 Viability Normalized Result (cmpd/DMSO %) at 10 μM” value with AD38 cells turned out to be 89%.
On to `O=C(NCc1cccc(Oc2cccc(O)c2)c1)c1ccc2c(c1)NC(=O)c1ccccc1S2(=O)=O` [Compound 810, N-(3-(3-hydroxyphenoxy)benzyl)-11-oxo-10,11-dihydrodibenzo[b,f][1,4]thiazepine-8-carboxamide 5,5-dioxide], for which the activity at 10 µM with HBV came to 3.2%. Also, the “AD38 Viability Normalized Result (cmpd/DMSO %) at 10 μM” value with AD38 cells is on record as 93%.
As to `O=C(NCCc1ccc(-c2ccccc2)cc1)c1ccc2c(c1)NC(=O)c1ccccc1N2` [Compound 508], in the data set with HBV, the activity at 10 µM worked out at 59.1%. Further, the “AD38 Viability Normalized Result (cmpd/DMSO %) at 10 μM” value in the data set on AD38 cells was 103%.
